Here are results for 45 sequences from patent US20060079453A1, “Hla binding peptides and their uses” (priority 2002, published 2006).

No end group written: not given here. Where only a bound is given, the exact number is not on record here.

Holding throughout (assay): biochemical
Assay type in all cases: binding

The target of experiment [1] is HLA-A*0301 (Homo sapiens, UniProt P04439).
In experiment [2] the target is HLA-A*1101 (Homo sapiens, UniProt P04439, A114D/D185E/E176A/F33Y/L180Q/S129P/T187R).
Experiment [3] deals with HLA-A*3101 (Homo sapiens, UniProt P04439, A270S/D185E/E176V/E277Q/F33T/G231S/G80R/H175R/I121M/I218V/I322F/K168Q/L300P/L318F/M331R/P217A/Q94H/R138Q/T323A/T345S/T97I/V358M).
The target of experiment [4] is HLA-A*3301 (Homo sapiens, UniProt P04439, A270S/D185E/E176V/E277Q/E87N/F33T/G231S/H175R/I121M/I218V/I322F/K168Q/K210R/L300P/L318F/M331R/P217A/Q86R/Q94H/R138Q/T323A/T345S/T97I/V358M/Y195H).
Experiment [5] has as its target HLA-A*6801 (Homo sapiens, UniProt P04439, A269V/D185E/E176V/E277Q/E87N/F33Y/G231S/I121M/I166T/I218V/L180W/L300P/L318F/N151K/P208A/P217A/Q86R/R169H/T345S).

One may read the IC50 as the midpoint of a concentration-inhibition curve. A higher IC50 goes with weaker potency. Take STLPGPGPGRR: the IC50 in experiment [1] is 297 nM; in experiment [2] it was 19 nM; in experiment [3] it was 61 nM; in experiment [4], 1890 nM; in experiment [5], 25 nM.
With AVPGGYPRRK, the 50% inhibitory concentration (IC50) is 819 nM in experiment [1]; 60 nM in experiment [2]; 40000 nM in experiment [3]; > 5570 nM in experiment [4]; 846 nM in experiment [5].
For KVGPGGYPRRK the same measures were 70 nM, 87 nM, 775 nM, > 5060 nM and 921 nM.
The like results for LTISYGRKK were, in that order, 584 nM, 69 nM, 13900 nM, 59700 nM and 63 nM.
On to SVYGETLER, for which the half-inhibitory concentration (IC50) in experiment [1] is 44 nM; in experiment [2], 11 nM; in experiment [3] it was 235 nM; in experiment [4], 160 nM; in experiment [5] it was 17 nM.
GFNHQHLPAR: the IC50 in experiment [1] was > 46600 nM; in experiment [2], 27900 nM; in experiment [3] it was 173 nM; in experiment [4], 5570 nM; in experiment [5], 34600 nM.
On to TVQPGPGPGK, for which the IC50 in experiment [1] came out at 41 nM; in experiment [2], 2.5 nM; in experiment [3], 1340 nM; in experiment [4], 68600 nM; in experiment [5], 28 nM.
The like results for ALNAAAAAK were, in that order, 74 nM, 21 nM, 11000 nM, > 72500 nM and 80000 nM.
AVKDLCIVYR: the IC50 in experiment [1] came to 841 nM; in experiment [2] it was 66 nM; in experiment [3], 7.3 nM; in experiment [4], 8 nM; in experiment [5] it was 6.5 nM.
On to RFLSKISEYY, for which the IC50 turned out to be 1700 nM in experiment [1]; 25500 nM in experiment [2]; 14 nM in experiment [3]; 41100 nM in experiment [4]; 4000 nM in experiment [5].
The like results for TSVHEIELR were, in that order, > 64300 nM, 872 nM, 1040 nM, 5950 nM and 12 nM.
For VTVYYGPGPGK the same measures were 310 nM, 24 nM, 9720 nM, 102000 nM and 30 nM.
Turning to TLEQTVKK, the half-maximal inhibitory concentration (IC50) in experiment [1] was 4770 nM; in experiment [2] it was 203 nM; in experiment [3] it was > 100000 nM; in experiment [4], > 75300 nM; in experiment [5], 21400 nM.
Regarding KSMLKELIK, the IC50 is 189 nM in experiment [1]; 151 nM in experiment [2]; 450 nM in experiment [3]; > 46500 nM in experiment [4]; > 37000 nM in experiment [5].
Regarding GTTLESITKK, the IC50 in experiment [1] was found to be 622 nM; in experiment [2], 108 nM; in experiment [3], 85200 nM; in experiment [4], 133000 nM; in experiment [5], 10100 nM.
For NIMGRWTGK the same measures were 52 nM, 54 nM, 3270 nM, 86 nM and 173 nM.
With VTIKIEGQLK, the half-inhibitory concentration (IC50) is 361 nM in experiment [1]; 69 nM in experiment [2]; 5080 nM in experiment [3]; 58000 nM in experiment [4]; 27 nM in experiment [5].
The like results for ETNPFGICK were, in that order, 9590 nM, 100 nM, 29100 nM, 804 nM and 14 nM.
With GTRQARRNK, the IC50 in experiment [1] was found to be 67 nM; in experiment [2], 749 nM; in experiment [3], 9710 nM; in experiment [4], 46000 nM; in experiment [5], 59700 nM.
The like results for VSHAQLPAK were, in that order, 378 nM, 9.5 nM, 46 nM, 1400 nM and 13500 nM.
For the sequence VFADLRIVYK, the 50% inhibitory concentration (IC50) in experiment [1] was 2090 nM; in experiment [2] it was 127 nM; in experiment [3], 402 nM; in experiment [4], 200 nM; in experiment [5] it was 273 nM.
The like results for AVADLTVVYR were, in that order, 489 nM, 11 nM, 31 nM, 892 nM and 7.3 nM.
For VTIRIGGQLK, the 50% inhibitory concentration (IC50) in experiment [1] stood at 51 nM; in experiment [2] it was 14 nM; in experiment [3] it was 4460 nM; in experiment [4], 65800 nM; in experiment [5] it was 25 nM.
Consider EVLEIPLIDLR, for which the IC50 in experiment [1] was > 47000 nM; in experiment [2], 16600 nM; in experiment [3], 36400 nM; in experiment [4], 72 nM; in experiment [5], 27 nM.
As for ALKISQLQK, the half-maximal inhibitory concentration (IC50) is 15 nM in experiment [1]; 96 nM in experiment [2]; 3200 nM in experiment [3]; 23800 nM in experiment [4]; > 54800 nM in experiment [5].
The like results for VSIRVGGQIK were, in that order, 642 nM, 91 nM, 50700 nM, > 61700 nM and 1960 nM.
As for SLGPGPGTK, the half-inhibitory concentration (IC50) is 7.8 nM in experiment [1]; 5.8 nM in experiment [2]; 4390 nM in experiment [3]; 152000 nM in experiment [4]; 3520 nM in experiment [5].
For RFHSIAGQYK the same measures were 17 nM, 43 nM, 1.3 nM, 629 nM and 83 nM.
For YLFNQHIKK the same measures were 14 nM, 7.8 nM, 4920 nM, 7970 nM and 14 nM.
In the case of PVRPQVPLR, the IC50 was > 10900 nM in experiment [1]; 16100 nM in experiment [2]; 332 nM in experiment [3]; 3440 nM in experiment [4]; 7010 nM in experiment [5].
For DTLEQTLKR the same measures were 31300 nM, 12900 nM, 38100 nM, 9.2 nM and 110 nM.
VSIRVGGQTK: the IC50 in experiment [1] was 341 nM; in experiment [2] it was 21 nM; in experiment [3] it was 29900 nM; in experiment [4], 39000 nM; in experiment [5] it was 290 nM.
Take LVTDLRIVYR: the IC50 in experiment [1] came to 3870 nM; in experiment [2] it was 648 nM; in experiment [3], 20 nM; in experiment [4], 150 nM; in experiment [5] it was 6.8 nM.
For SFYGKTLEER the same measures were 642 nM, 205 nM, 17 nM, 66 nM and 42 nM.
As to KISEYRHYNK, the IC50 in experiment [1] worked out at 29 nM; in experiment [2], 18 nM; in experiment [3] it was 397 nM; in experiment [4], 24800 nM; in experiment [5], 15600 nM.
For FLYLLNKKNK the same measures were 177 nM, 475 nM, 4310 nM, 780 nM and 155 nM.
The like results for AACWRSRRK were, in that order, 75 nM, 770 nM, 3020 nM, 45300 nM and 12900 nM.
Take AVKDLFVVYR: the IC50 in experiment [1] is 1730 nM; in experiment [2], 91 nM; in experiment [3], 3.1 nM; in experiment [4], 9.1 nM; in experiment [5], 3.3 nM.
As for GTRQARRNRK, the concentration for half-maximal inhibition (IC50) in experiment [1] is 100 nM; in experiment [2], 634 nM; in experiment [3], 3800 nM; in experiment [4], > 42300 nM; in experiment [5], 7790 nM.
In the case of KQRFHNIRGK, the IC50 is 55 nM in experiment [1]; 1950 nM in experiment [2]; 573 nM in experiment [3]; 35200 nM in experiment [4]; 22900 nM in experiment [5].
For KMFLQLAK the same measures were 45 nM, 62 nM, 677 nM, > 126000 nM and 8380 nM.
For LVFSNVLCFR the same measures were 120 nM, 19 nM, 33 nM, 19 nM and 7.7 nM.
RLYSKVSEFR: the IC50 in experiment [1] turned out to be 6.4 nM; in experiment [2] it was 131 nM; in experiment [3], 24 nM; in experiment [4], 690 nM; in experiment [5], 73 nM.
The like results for FISFYLINK were, in that order, 19 nM, 9 nM, 2190 nM, 1460 nM and 18 nM.
For VTVRIGGMQK the same measures were 54 nM, 13 nM, 2580 nM, 44400 nM and 155 nM.
